The source of these data is publication PMC8084100, “Bypassing the requirement for aminoacyl-tRNA by a cyclodipeptide synthase enzyme” (RSC Chemical Biology, 2021).

The target of assay [1] is T1, BtCDPS (Caldibacillus thermoamylovorans, UniProt A0A090KS30).
T1 construct: gene yvmC; full length (residues 1-232), codon-optimised synthetic gene, TEV-cleavable His6 tag cut, E. coli BL21(DE3), monomer
The experiment in a line: LC-MS of cyclic dipeptide product. It is filed as biochemical. As to conditions: 50 mM HEPES pH 7.5, 500 mM NaCl, 5 mM DTT, 1 mM substrate, 20 °C, 24 h.

The target of assay [2] is T1, BtCDPS. The experiment in a line: LC-HRMS of cLL product; HPLC of DBE-OH; intact protein MS of acyl-enzyme. The note with it: 50 mM HEPES pH 7.5, 500 mM NaCl, 5 mM DTT, 500 uM substrate, room temperature; covalent (leucyl-enzyme intermediate at S33). Type of assay: biochemical.

T1 sequence (A0A090KS30 1-231): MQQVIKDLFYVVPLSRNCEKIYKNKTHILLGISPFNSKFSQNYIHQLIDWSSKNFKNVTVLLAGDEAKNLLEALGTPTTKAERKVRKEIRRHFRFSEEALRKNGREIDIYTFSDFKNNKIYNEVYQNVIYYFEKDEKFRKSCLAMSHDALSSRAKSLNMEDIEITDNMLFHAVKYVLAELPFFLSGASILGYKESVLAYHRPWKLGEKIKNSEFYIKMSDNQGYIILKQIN

For the molecule `CC[C@H](C)[C@H](N)C(=O)OCc1cc([N+](=O)[O-])cc([N+](=O)[O-])c1` [Ile-DBE], the “LC-MS of cyclic dipeptide product” value in assay [1] is “Ile-DBE and Met-DBE were also substrates for BtCDPS”.

In the case of `CSCC[C@H](N)C(=O)OCc1cc([N+](=O)[O-])cc([N+](=O)[O-])c1` [Met-DBE], in assay [1], the “LC-MS of cyclic dipeptide product” value is “Ile-DBE and Met-DBE were also substrates for BtCDPS”. For the molecule `CC(C)C[C@H](N)C(=O)OCc1cc([N+](=O)[O-])cc([N+](=O)[O-])c1` [Leu-DBE], the “LC-HRMS of cLL product; HPLC of DBE-OH; intact protein MS of acyl-enzyme” value in assay [2] was “a cyclic dipeptide (cLL) is generated by CDPS when Leu-DBE was used as a substrate”.
